From ChEMBL document CHEMBL4340541, “Synthesis of andrographolide analogues and their neuroprotection and neurite outgrowth-promoting activities” (Bioorg Med Chem, 2019) come the findings set out here.

The test system of data set [1] is BV-2. Put plainly: Cytotoxicity in mouse BV2 cells assessed as reduction in cell viability. The data set is classed as cell-based.
Data set [2] deals with PC-12. Kind of data set: Neuroprotective activity against 6-OHDA -induced toxicity in rat PC12 cells assessed as increase in cell viability at 10 uM pretreated for 24 hrs followed by 6-OHDA challenge and measured after 24 hrs by MTT assay. The format is functional, cell-based.
For data set [3], the system named is BV-2. Kind of data set: Antiinflammatory activity in mouse BV2 cells assessed as reduction in LPS-induced NO production at 20 uM incubated for 24 hrs by Griess method. The format is functional. As to conditions: for inhibition at 20 µM: BV-2, 24 h.
For data set [4], the system named is PC-12. Kind of data set: Neuroprotective activity against 6-OHDA -induced toxicity in rat PC12 cells assessed as increase in cell viability at 20 uM pretreated for 24 hrs followed by 6-OHDA challenge and measured after 24 hrs by MTT assay. The data set is classed as functional, cell-based.
The test system of data set [5] is PC-12. Kind of data set: Neuroprotective activity against H2O2-induced toxicity in rat PC12 cells assessed as increase in cell viability at 10 uM pretreated for 24 hrs followed by H2O2 challenge and measured after 24 hrs by MTT assay. The format is functional, cell-based.
A short description of data set [6]: Lipophilicity, log P of the compound. The format is physicochemical. As to conditions: octanol/water.
Data set [7] concerns PC-12. Kind of data set: Induction of neurite outgrowth in NGF-induced rat PC12 cells assessed as neurite bearing cells at 20 uM cotreated with 20 ng/ml NGF incubated for 48 hrs by light microscopy. The data set is classed as functional.
The subject of data set [8] is PC-12. Kind of data set: Neuroprotective activity against H2O2-induced toxicity in rat PC12 cells assessed as increase in cell viability at 20 uM pretreated for 24 hrs followed by H2O2 challenge and measured after 24 hrs by MTT assay. The format is functional, cell-based.
For data set [9], the system named is PC-12. Put plainly: Induction of neurite outgrowth in NGF-induced rat PC12 cells assessed as neurite bearing cells at 20 uM cotreated with 20 ng/ml NGF incubated for 48 hrs by methylene blue staining based light microscopy. The data set is classed as functional.
Data set [10] concerns PC-12. Kind of data set: Induction of neurite outgrowth in NGF-induced rat PC12 cells assessed as neurite bearing cells cotreated with 20 ng/ml NGF incubated for 48 hrs by light microscopy. The data set is classed as functional, cell-based.
The subject of data set [11] is PC-12. Kind of data set: Induction of neurite outgrowth in rat PC12 cells assessed as neurite bearing cells in absence of 20 ng/ml NGF incubated for 48 hrs by light microscopy. The format is functional, cell-based.
Data set [12] concerns BV-2. Put plainly: Antiinflammatory activity in LPS induced mouse BV2 cells assessed as reduction in TNFalpha incubated for 6 hrs by ELISA method. The data set is classed as functional, cell-based.
Data set [13] relates to BV-2. Kind of data set: Neuroprotective activity against microglia-conditioned medium-induced cytotoxicity in rat PC12 cells exposed to conditioned medium derived from mouse BV2 cells assessed as increase in cell viability at 5 to 20 uM by MTT assay. The data set is classed as functional, cell-based.
Data set [14] relates to BV-2. Put plainly: Antiinflammatory activity in LPS-induced mouse BV2 cells assessed as reduction in iNOS mRNA expression at 20 uM incubated for 24 hrs by RT-PCR analysis method. The data set is classed as functional, cell-based.
Data set [15] deals with BV-2. Put plainly: Antiinflammatory activity in mouse BV2 cells assessed as reduction in LPS-induced NO production incubated for 24 hrs by Griess method. The data set is classed as functional, cell-based.
The subject of data set [16] is BV-2. Put plainly: Neuroprotective activity against microglia-conditioned medium-induced cytotoxicity in rat PC12 cells exposed to conditioned medium derived from 24 hrs compound pre-treated mouse BV2 cells assessed as increase in cell viability at 5 to 20 uM by MTT assay. The format is functional, cell-based.
The test system of data set [17] is BV-2. Put plainly: Antiinflammatory activity in LPS induced mouse BV2 cells assessed as reduction in iNOS expression at 20 uM incubated for 24 hrs by DAPI based fluorescence microscopic method. The format is functional, cell-based.
For data set [18], the system named is BV-2. Put plainly: Antiinflammatory activity in LPS induced mouse BV2 cells assessed as reduction in IL-6 incubated for 24 hrs by ELISA method. The data set is classed as functional, cell-based.
For data set [19], the system named is BV-2. Put plainly: Antiinflammatory activity in mouse BV2 cells assessed as reduction in LPS-induced NO production at 1 uM incubated for 24 hrs by Griess method relative to control. The format is functional. The following applies: BV-2, 24 h.
In data set [20] the test system is PC-12. Put plainly: Cytotoxicity against rat PC12 cells assessed as reduction in cell viability incubated for 48 hrs. The data set is classed as cell-based. As to conditions: pc-12, 48 h.
For data set [21], the system named is BV-2. Put plainly: Neuroprotective activity against microglia-conditioned medium-induced cytotoxicity in rat PC12 cells co-cultred with mouse BV2 cells assessed as increase in cell viability at 5 to 20 uM incubated for 4 hrs by MTT assay. The format is functional, cell-based.
The test system of data set [22] is PC-12. Put plainly: Induction of neurite outgrowth in NGF-induced rat PC12 cells assessed as neurite bearing cells at 5 to 10 uM cotreated with 20 ng/ml NGF incubated for 48 hrs by light microscopy. The data set is classed as functional, cell-based.

Calls of active or inactive are those of the source. The calls are words filed in the database; no cut-off is given here.

With `C[C@@]1(CO)[C@H](O)CC[C@@]2(C)C3CC(C4=CCOC4=O)O[C@]3(C)CC[C@H]12` (stereo partly specified), the Activity entry in the data set with BV-2 [1] is “Non-Toxic”. The result with PC-12 [2], with PC-12 [4], in the data set with PC-12 [5] and with PC-12 [8] was Active. In addition, in the data set with BV-2 [3], the inhibition result was “inactive”. Further, the lipophilicity (logP) in [6] (read-out: logP) came out at 2.16. The result in the data set on PC-12 [7] was inactive.

In the case of `C=C1CC[C@@H]2[C@](C)(CO[C@@H]3O[C@H](CO)[C@@H](O)[C@H](O)[C@H]3O)CCC[C@@]2(C)[C@@H]1CCC1=CCOC1=O` [NEOANDROGRAPHOLIDE], the Activity entry was “Non-Toxic” in the data set with BV-2 [1], 21.5% with PC-12 [9] and “Dose-dependent effect” with PC-12 [10]. For the same molecule, in the data set on BV-2 [3], the inhibition entry is “inactive”. Further, in the data set on PC-12 [11], the result was Active. The result in the data set with PC-12 [4] and in the data set with PC-12 [8] was inactive. Further, the logP in data set [6] (read-out: logP) is 3.07.

On to `C=C1CC[C@@H]2[C@](C)(CO)[C@H](O)CC[C@@]2(C)[C@@H]1C/C=C1/C(=O)OC[C@H]1O` [ANDROGRAPHOLIDE], for which, in the data set with BV-2 [3], the inhibition at 20 µM amounted to 76.7%. Besides, the outcome in the data set on PC-12 [7] was Active.

Consider `CC1=C(CCC2=CCOC2=O)[C@]2(C)CC[C@@H](O)[C@@](C)(CO)[C@H]2CC1`, for which the Activity entry was “Non-Toxic” with BV-2 [1], 31.2% in the data set with PC-12 [9] and “Dose-dependent effect” with PC-12 [10]. For the same molecule, the inhibition entry with BV-2 [3] was “inactive”. Besides, the result in the data set with PC-12 [11] and in the data set with PC-12 [7] was Active. Also, the outcome in the data set with PC-12 [4] and with PC-12 [8] was inactive. Also, the log partition coefficient (logP) in data set [6] (read-out: logP) was 2.9.

On to `C=C1CC[C@@H]2[C@](C)(CO)[C@H](O)CC[C@@]2(C)[C@@H]1/C=C/C1=CCOC1=O`, for which the Activity entry in the data set on BV-2 [1] was “Non-Toxic”; in the data set with PC-12 [9], 18.6%; with PC-12 [10], “Dose-dependent effect”; in the data set on PC-12 [7], “<=16.1%”. Moreover, the inhibition result in the data set with BV-2 [3] was “inactive”. Moreover, the outcome in the data set with PC-12 [11] was Active. Also, the result with PC-12 [4] and with PC-12 [8] was inactive. The same molecule yielded a logP in data set [6] of 3.23.

For the molecule `C=C1CC[C@@H]2[C@](C)(COC(C)=O)[C@H](OC(C)=O)CC[C@@]2(C)[C@@H]1C/C=C1\C=COC1=O`, the Activity entry with BV-2 [1] was “Non-Toxic”; with BV-2 [12] it was “Dose-dependent effect”; in the data set on BV-2 [18], “Dose-dependent effect”. Further, the inhibition at 20 µM with BV-2 [3] was 78%. Also, the outcome with BV-2 [13], in the data set on PC-12 [4], in the data set on PC-12 [7] and with PC-12 [8] was inactive. For the same molecule, the outcome in the data set with BV-2 [14], in the data set with BV-2 [16] and in the data set with BV-2 [17] was Active. The inhibition entry with BV-2 [15] was “Dose-dependent effect”. Also, in data set [6] (read-out: logP), the log partition coefficient (logP) turned out to be 3.87.

For the molecule `C=C1CC[C@@H]2[C@](C)(CO)[C@H](O)CC[C@@]2(C)[C@@H]1C/C=C1\C=COC1=O`, the Activity result with BV-2 [1] was “Non-Toxic”. In the data set with BV-2 [3], the inhibition entry is “inactive”. The result with PC-12 [4], with PC-12 [7] and in the data set on PC-12 [8] was inactive. In addition, in data set [6] (read-out: logP), the logP was found to be 3.28.

For the molecule `C=C1CC[C@@H]2[C@](C)(CO)[C@H](O)CC[C@@]2(C)[C@@H]1CCC1=CCOC1=O` [DEOXYANDROGRAPHOLIDE], in the data set on BV-2 [1], the Activity result was “Non-Toxic”. For the same molecule, the inhibition result in the data set on BV-2 [3] is “inactive”. Also, the result in the data set with PC-12 [4], in the data set on PC-12 [7] and with PC-12 [8] was inactive. Also, the logP in data set [6] (read-out: logP) is 3.43.

Consider `CC(=O)OC[C@@]1(C)[C@H]2CCC(C)=C(C[C@H](OC(C)=O)C3=CCOC3=O)[C@]2(C)CC[C@H]1OC(C)=O`, for which the Activity result with BV-2 [1] is “Non-Toxic”; in the data set on BV-2 [12], “Dose-dependent effect”; in the data set with PC-12 [20], “Toxic”; in the data set on BV-2 [18], “Dose-dependent effect”. Further, the inhibition at 1 µM in the data set on BV-2 [19] came to 34.4%. Besides, the inhibition at 20 µM with BV-2 [3] was found to be 95.7%. Further, the outcome in the data set with BV-2 [13] and in the data set with PC-12 [22] was inactive. Moreover, the outcome with BV-2 [14], with BV-2 [21], in the data set with PC-12 [4], with BV-2 [16], with BV-2 [17] and in the data set on PC-12 [8] was Active. In the data set on BV-2 [15], the inhibition entry was “Dose-dependent effect”. The logP in data set [6] (read-out: logP) is 2.96.

In the case of `C=C1CC[C@@H]2[C@](C)(COC(C)=O)[C@H](OC(C)=O)CC[C@@]2(C)[C@@H]1CCC1=CCOC1=O`, in the data set with BV-2 [1], the Activity entry was “Non-Toxic”. Moreover, in the data set with BV-2 [3], the inhibition entry is “Active”. For the same molecule, the result with PC-12 [4], in the data set with PC-12 [7] and in the data set on PC-12 [8] was inactive. Further, in [6] (read-out: logP), the log partition coefficient (logP) came out at 4.02.

In the case of `C=C1CC[C@@H]2[C@](C)(COC(C)=O)[C@H](OC(C)=O)CC[C@@]2(C)[C@@H]1CCC1C(=O)OC[C@H]1OC(C)=O` (stereo partly specified), in the data set on BV-2 [1], the Activity result was “Non-Toxic”. In addition, the inhibition entry with BV-2 [3] was “Active”. The outcome in the data set on PC-12 [4], in the data set on PC-12 [7] and in the data set with PC-12 [8] was inactive. The logP in [6] (read-out: logP) is 3.71.

Turning to `C=C1CC[C@@H]2[C@](C)(COC(C)=O)[C@H](OC(C)=O)CC[C@@]2(C)[C@@H]1/C=C/C1=CCOC1=O`, the Activity entry in the data set with BV-2 [1] is recorded as “Non-Toxic”. Besides, the inhibition result in the data set on BV-2 [3] was “Active”. Moreover, the result with PC-12 [4], in the data set on PC-12 [7] and in the data set with PC-12 [8] was inactive. Besides, in [6] (read-out: logP), the logP was found to be 3.83.

For `C=C1CC[C@@H]2[C@](C)(CO)[C@H](O)CC[C@@]2(C)[C@@H]1CCC1C(=O)OC[C@H]1O` (stereo partly specified), in the data set with BV-2 [1], the Activity entry is on record as “Non-Toxic”. Moreover, the inhibition result in the data set with BV-2 [3] is “inactive”. Moreover, the result in the data set on PC-12 [4], in the data set on PC-12 [7] and in the data set with PC-12 [8] was inactive. Besides, the log partition coefficient (logP) in data set [6] (read-out: logP) came out at 2.54.
